For data set [1] the following is noted: temperature or pH; cited from earlier work.
The test system of a further data set is fungi. Particulars: cited from earlier work.
Another data set deals with C. albicans. Nature of the data set: microbe, parasite or virus in culture. The class given is cell-based. Particulars: against both C. albicans and Fusarium strains. As to the method:
The yeast strains were cultivated and suspended in Sabouraud's Dextrose (SD) broth diluted at one sixth at a starting OD600=˜0.08 in a flat-bottomed microtitre plate. A serial dilution of peptide in the same broth was mixed with the inoculum to give a final peptide concentration of 0.4-22 μM. The antifungal activity was assessed by monitoring the OD600 in cycles of 30 minutes and an orbital shaking at 100 rpm using an Infinite M200 microplate reader (Tecan Group Ltd., Switzerland) for 24/48 h at 37° C. Cultures without peptides were used as positive controls and broth alone or with 22 μM peptide served as negative controls. The minimum concentration required for complete inhibition was assessed by both visible observations as well as by measuring the OD600 and taken as the MIC. Each experiment was repeated in triplicates.

The next data set relates to IOBA-NHC cells. The class given is cell-based, human. Particulars: 24 h. As to the method: IOBA-NHC cells were cultured under standard conditions (humidified atmosphere of 5% CO2 at 37° C.) in DMEM/F12 supplemented with 1 μg/ml bovine pancreas insulin, 2 ng/ml mouse epidermal growth factor, 0.1 μg/ml cholera toxin, […] hydrocortisone, 10% fetal bovine serum (FBS), 50 UI/ml penicillin, and 50 UI/ml streptomycin. Cells from passages 50-80 were used in all experiments. Every day, normal culture development was observed by phase-contrast microscopy. Cells were removed by gentle trypsin incubation at confluence and counted. They were seeded into 96 well culture plates (Corning, Schiphol-Rijk, The Netherlands) for microtitration analysis of flow cytotoxicity assay (˜10,000 cells/well). Cultures were kept at 37° C. for 24 h. Subconfluent cells (culture surface covering nearly 70%) were then exposed to various peptide concentrations (0.22-225 μM). Cytotoxicity was measured periodically using MultiTox-Fluor Multiplex assay kit (Promega, Wis., USA) by measuring the AFC fluorescence (λex=485 and λem=520 nm).

Converted amounts (≈) assume the structure as drawn. Where a SMILES comes first, the peptide text is derived from it. Bridges are numbered along the chain shown (N, C = ends). Roman numbers before positions name the chains, in order. Where no end group is shown, it is not given here.

As to `OC(Cn1cncn1)(Cn1cncn1)c1ccc(F)cc1F` [Fluconazole], the Solubility in data set [1] was 1 mg/L (≈ 3.27 µM). The Activity result in the data set with fungi is “Broad spectrum. Less effective against”.
Regarding `Clc1ccc(COC(Cn2ccnc2)c2ccc(Cl)cc2Cl)c(Cl)c1` (centres unmarked) [Miconazole], in the data set with fungi, the Activity entry is “Broad spectrum”.
On to “RGRKVVRRKK [Monomer, reference compound]”, for which the antifungal activity result in the data set on C. albicans is “weak antifungal activity”.
Take “RGRKVVRRKKKRRVVKRGR [Linear Retrodimer, reference compound]”: the antifungal activity entry in the data set on C. albicans is recorded as “weak antifungal activity”.
`CC(=O)N1CCN(c2ccc(OCC3COC(Cn4ccnc4)(c4ccc(Cl)cc4Cl)O3)cc2)CC1` (centres unmarked) [Ketaconazole]: the Solubility in data set [1] is 0.09 (25° C.) mg/L. Also, the Activity entry in the data set on fungi is listed as “Broad spectrum”.
For `CC[C@H](C)C[C@H](C)CCCCCCCCC(=O)N[C@H]1C[C@@H](O)[C@@H](NCCN)NC(=O)[C@@H]2[C@@H](O)CCN2C(=O)[C@H]([C@H](O)CCN)NC(=O)[C@H]([C@H](O)[C@@H](O)c2ccc(O)cc2)NC(=O)[C@@H]2C[C@@H](O)CN2C(=O)[C@H]([C@@H](C)O)NC1=O` [Caspofungin], in data set [1], the Solubility was 370 mg/L (≈ 338 µM). In the data set on fungi, the Activity result is “Effective against Candida spp”.
As usually defined, the EC50 is the concentration that produces a half-maximal response. Turning to `CC(C)[C@H](NC(=O)[C@H](C)NC(=O)[C@H](C)NC(=O)[C@H](C)NC(=O)CNC(=O)[C@@H](N)CCCNC(=N)N)C(=O)N[C@@H](CCCNC(=N)N)C(=O)N[C@@H](CCCNC(=N)N)C(=O)NCCCC[C@H](NC(=O)[C@H](CCCNC(=N)N)NC(=O)[C@H](CCCNC(=N)N)NC(=O)[C@@H](NC(=O)[C@H](C)NC(=O)[C@H](C)NC(=O)[C@H](C)NC(=O)CNC(=O)[C@@H](N)CCCNC(=N)N)C(C)C)C(=O)NCCCC[C@H](NC(=O)[C@H](CCCCNC(=O)[C@H](CCCNC(=N)N)NC(=O)[C@H](CCCNC(=N)N)NC(=O)[C@@H](NC(=O)[C@H](C)NC(=O)[C@H](C)NC(=O)[C@H](C)NC(=O)CNC(=O)[C@@H](N)CCCNC(=N)N)C(C)C)NC(=O)[C@H](CCCNC(=N)N)NC(=O)[C@H](CCCNC(=N)N)NC(=O)[C@@H](NC(=O)[C@H](C)NC(=O)[C@H](C)NC(=O)[C@H](C)NC(=O)CNC(=O)[C@@H](N)CCCNC(=N)N)C(C)C)C(=O)N[C@@H](CCCCN)C(=O)O` [[(SEQ ID NO: 14)2K]2KK] (I: H-RGAAAVRRKKK-OH / II: H-RGAAAVRRK / III: H-RGAAAVRR / IV: H-RGAAAVRR; amide I:9-IV:C, I:10-II:C, II:9-III:C; N-terminus and C-terminus assumed), the EC50 with IOBA-NHC cells was more than 257 µM.
On the same count and under the same terms, to `CC(C)[C@H](NC(=O)[C@H](C)NC(=O)[C@H](CCCCN)NC(=O)[C@H](CCCNC(=N)N)NC(=O)CNC(=O)[C@@H](N)CCCNC(=N)N)C(=O)N[C@@H](CCCNC(=N)N)C(=O)N[C@@H](CCCNC(=N)N)C(=O)NCCCC[C@H](NC(=O)[C@H](CCCNC(=N)N)NC(=O)[C@H](CCCNC(=N)N)NC(=O)[C@@H](NC(=O)[C@H](C)NC(=O)[C@H](CCCCN)NC(=O)[C@H](CCCNC(=N)N)NC(=O)CNC(=O)[C@@H](N)CCCNC(=N)N)C(C)C)C(=O)NCCCC[C@H](NC(=O)[C@H](CCCCNC(=O)[C@H](CCCNC(=N)N)NC(=O)[C@H](CCCNC(=N)N)NC(=O)[C@@H](NC(=O)[C@H](C)NC(=O)[C@H](CCCCN)NC(=O)[C@H](CCCNC(=N)N)NC(=O)CNC(=O)[C@@H](N)CCCNC(=N)N)C(C)C)NC(=O)[C@H](CCCNC(=N)N)NC(=O)[C@H](CCCNC(=N)N)NC(=O)[C@@H](NC(=O)[C@H](C)NC(=O)[C@H](CCCCN)NC(=O)[C@H](CCCNC(=N)N)NC(=O)CNC(=O)[C@@H](N)CCCNC(=N)N)C(C)C)C(=O)N[C@@H](CCCCN)C(=O)O` [Peptide B4010-V5A] (I: H-RGRKAVRRKKK-OH / II: H-RGRKAVRRK / III: H-RGRKAVRR / IV: H-RGRKAVRR; amide I:9-IV:C, I:10-II:C, II:9-III:C) belongs 190 µM.
On the same count and under the same terms, to `C[C@H](NC(=O)[C@H](C)NC(=O)[C@H](CCCCN)NC(=O)[C@H](CCCNC(=N)N)NC(=O)CNC(=O)[C@@H](N)CCCNC(=N)N)C(=O)N[C@@H](CCCNC(=N)N)C(=O)N[C@@H](CCCNC(=N)N)C(=O)NCCCC[C@H](NC(=O)[C@H](CCCNC(=N)N)NC(=O)[C@H](CCCNC(=N)N)NC(=O)[C@H](C)NC(=O)[C@H](C)NC(=O)[C@H](CCCCN)NC(=O)[C@H](CCCNC(=N)N)NC(=O)CNC(=O)[C@@H](N)CCCNC(=N)N)C(=O)NCCCC[C@H](NC(=O)[C@H](CCCCNC(=O)[C@H](CCCNC(=N)N)NC(=O)[C@H](CCCNC(=N)N)NC(=O)[C@H](C)NC(=O)[C@H](C)NC(=O)[C@H](CCCCN)NC(=O)[C@H](CCCNC(=N)N)NC(=O)CNC(=O)[C@@H](N)CCCNC(=N)N)NC(=O)[C@H](CCCNC(=N)N)NC(=O)[C@H](CCCNC(=N)N)NC(=O)[C@H](C)NC(=O)[C@H](C)NC(=O)[C@H](CCCCN)NC(=O)[C@H](CCCNC(=N)N)NC(=O)CNC(=O)[C@@H](N)CCCNC(=N)N)C(=O)N[C@@H](CCCCN)C(=O)O` [[(SEQ ID NO: 13)2K]2KK] (I: H-RGRKAARRKKK-OH / II: H-RGRKAARRK / III: H-RGRKAARR / IV: H-RGRKAARR; amide I:9-IV:C, I:10-II:C, II:9-III:C; N-terminus and C-terminus assumed) belongs 46 µM; to `C[C@H](NC(=O)[C@H](C)NC(=O)[C@H](C)NC(=O)[C@H](C)NC(=O)[C@H](CCCCN)NC(=O)[C@H](CCCNC(=N)N)NC(=O)CNC(=O)[C@@H](N)CCCNC(=N)N)C(=O)NCCCC[C@H](NC(=O)[C@H](C)NC(=O)[C@H](C)NC(=O)[C@H](C)NC(=O)[C@H](C)NC(=O)[C@H](CCCCN)NC(=O)[C@H](CCCNC(=N)N)NC(=O)CNC(=O)[C@@H](N)CCCNC(=N)N)C(=O)NCCCC[C@H](NC(=O)[C@H](CCCCNC(=O)[C@H](C)NC(=O)[C@H](C)NC(=O)[C@H](C)NC(=O)[C@H](C)NC(=O)[C@H](CCCCN)NC(=O)[C@H](CCCNC(=N)N)NC(=O)CNC(=O)[C@@H](N)CCCNC(=N)N)NC(=O)[C@H](C)NC(=O)[C@H](C)NC(=O)[C@H](C)NC(=O)[C@H](C)NC(=O)[C@H](CCCCN)NC(=O)[C@H](CCCNC(=N)N)NC(=O)CNC(=O)[C@@H](N)CCCNC(=N)N)C(=O)N[C@@H](CCCCN)C(=O)O` [[(SEQ ID NO: 18)2K]2KK] (I: H-RGRKAAAAKKK-OH / II: H-RGRKAAAAK / III: H-RGRKAAAA / IV: H-RGRKAAAA; amide I:9-IV:C, I:10-II:C, II:9-III:C; N-terminus and C-terminus assumed), more than 273 µM.
Turning to `CCC(C)n1ncn(-c2ccc(N3CCN(c4ccc(OCC5COC(Cn6cncn6)(c6ccc(Cl)cc6Cl)O5)cc4)CC3)cc2)c1=O` (centres unmarked) [Itraconazole], in data set [1], the Solubility was 0.00047 mg/L (≈ 0.000666 µM).
